A word on the IC50: it is the concentration needed to halve the response being measured.

In one assay the target is T1, hNaV1.7 (Homo sapiens, UniProt Q15858).
T1 construct: expressed in transfected cells
The assay is described as follows: FDSS Membrane Potential In-Vitro Assay. It is filed as cell-based. The following applies: stimulation with veratridine and scorpion venom, read-out: NaV1.7 IC50.

The next assay has as its target T2, NaV1.7 (Homo sapiens, UniProt Q15858).
T2 construct: expressed in transfected cells
Put plainly: Patchliner Electrophysiological In-Vitro Assay (NaV1.7). In kind it is cell-based. The following applies: Patchliner patch clamp, HEK293, holding at V1/2. In a few lines:
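Automated whole-cell patch clamp at room temperature on HEK293 cells stably expressing hNav1.7 with β1 and β2 subunits. Inactivated-state Ki: cells held at their own V1/2, stepped to −120 mV for 5–10 ms, then to Vmax for 10–20 ms, repeated every 10 s; dose-dependent inhibition analysed.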
In general terms: Patch clamp records ionic current or voltage across a cell membrane.

A further assay addresses T3, NaV1.5 (Homo sapiens, UniProt Q14524).
T3 construct: expressed in transfected cells
Put plainly: Patchliner Electrophysiological In-Vitro Assay (NaV1.5). It is filed as cell-based. The conditions noted are these: Patchliner patch clamp, HEK293. The procedure:
The recording of sodium current from stable HEK293 cell lines expressing NaV1.7 or NaV1.5 was done on a Patchliner® instrument, Nanion Technologies. The Patchliner® is a fully automated bench-top patch clamp platform and can record simultaneously from up to eight single cells with GΩ seals.
For patch-clamp experiments, cells were grown under standard culturing conditions in Dulbecco's Modified Eagles medium supplemented with 10% fetal bovine serum, glutamine and HEPES. Cells were harvested and kept in suspension for up to 4 hours with no significant change in quality or ability to patch. Whole cell patch clamp recordings were conducted according to Nanion's standard procedure for the Patchliner®. Experiments were conducted at room temperature.
Voltage protocols were designed to establish: 1) peak current amplitude (Imax), 2) test potential (Vmax) and 3) half-inactivation potential (V1/2) for each of the eight individual cells. To determine V1/2, a standard steady-state inactivation protocol was executed using a series of fifteen 500 ms depolarizing pre-pulses in 10 mV increments (starting at −130 mV) and immediately followed by a 10 ms test pulse to Vmax. To estimate test compound affinity to the inactivated state of sodium channel (Ki), the holding potential for each cell was set automatically to the V1/2 calculated from a steady-state inactivation data. The current was activated with the following voltage protocol: holding at V1/2 for 2-5 seconds, return to the −120 mV for 5-10 ms to relieve fast inactivation, stepping to test potential (Vmax) for 10-20 ms. This voltage protocol was repeated every 10 seconds to establish the baseline with 2-3 buffer additions followed by the test compound addition. The dose-dependent inhibition was analyzed using Nanion's Data Analysis Package.

The subject of assay [1] is streptozotocin (STZ)-induced diabetic model. The assay is described as follows: Streptozotocin (STZ)-Induced Model of Diabetic Neuropathy, behavioral tests. It is filed as in vivo, male Sprague-Dawley rats. The conditions noted are these: 30 mg/kg, measured 30 minutes post dose. The procedure:
250-350 g male Sprague-Dawley rats from appropriate animal resources were used. Type I diabetes was induced by a single injection, (intraperitoneally, intravenously or intramuscularly) of 50-100 mg/kg of streptozotocin (STZ, Sigma Chemicals, St. Louis, Mo. or VWR) freshly dissolved in sodium citrate (0.01 M, pH 4.5). Sham animals were given either saline or same vehicle injection. Following a wait time of about two days, inducement of diabetes was confirmed in STZ-injected rats by measuring the plasma glucose concentrations in blood samples from the tail vein after a fast of 6 hours. […] Other parameters (water intake, food intake, and bodyweight) were monitored before the treatment with a test compound and after the cessation of the treatment.
The analgesic effect of the test compound was expressed as a percent recovery (% Recovery) relative to the sham control group baseline and calculated according to the formula: […]
Rats were placed on the glass surface of a thermal testing apparatus (Model 336, IITC/Life Science Instruments, Woodland Hills, Calif.) and were allowed to acclimate for 10 min before testing on the glass surface at room temperature. […] The paw withdrawal latency was recorded by a digital timer. The thermal threshold was determined as the mean withdrawal latency from two to three consecutive trials of both hindpaws. […]

Where “and” joins values, the source holds several entries; their conditions need not be identical. Equal values may be shown once. A value given as a limit tells only on which side of the number the result lay.

T1 sequence (Q15858 whole entry): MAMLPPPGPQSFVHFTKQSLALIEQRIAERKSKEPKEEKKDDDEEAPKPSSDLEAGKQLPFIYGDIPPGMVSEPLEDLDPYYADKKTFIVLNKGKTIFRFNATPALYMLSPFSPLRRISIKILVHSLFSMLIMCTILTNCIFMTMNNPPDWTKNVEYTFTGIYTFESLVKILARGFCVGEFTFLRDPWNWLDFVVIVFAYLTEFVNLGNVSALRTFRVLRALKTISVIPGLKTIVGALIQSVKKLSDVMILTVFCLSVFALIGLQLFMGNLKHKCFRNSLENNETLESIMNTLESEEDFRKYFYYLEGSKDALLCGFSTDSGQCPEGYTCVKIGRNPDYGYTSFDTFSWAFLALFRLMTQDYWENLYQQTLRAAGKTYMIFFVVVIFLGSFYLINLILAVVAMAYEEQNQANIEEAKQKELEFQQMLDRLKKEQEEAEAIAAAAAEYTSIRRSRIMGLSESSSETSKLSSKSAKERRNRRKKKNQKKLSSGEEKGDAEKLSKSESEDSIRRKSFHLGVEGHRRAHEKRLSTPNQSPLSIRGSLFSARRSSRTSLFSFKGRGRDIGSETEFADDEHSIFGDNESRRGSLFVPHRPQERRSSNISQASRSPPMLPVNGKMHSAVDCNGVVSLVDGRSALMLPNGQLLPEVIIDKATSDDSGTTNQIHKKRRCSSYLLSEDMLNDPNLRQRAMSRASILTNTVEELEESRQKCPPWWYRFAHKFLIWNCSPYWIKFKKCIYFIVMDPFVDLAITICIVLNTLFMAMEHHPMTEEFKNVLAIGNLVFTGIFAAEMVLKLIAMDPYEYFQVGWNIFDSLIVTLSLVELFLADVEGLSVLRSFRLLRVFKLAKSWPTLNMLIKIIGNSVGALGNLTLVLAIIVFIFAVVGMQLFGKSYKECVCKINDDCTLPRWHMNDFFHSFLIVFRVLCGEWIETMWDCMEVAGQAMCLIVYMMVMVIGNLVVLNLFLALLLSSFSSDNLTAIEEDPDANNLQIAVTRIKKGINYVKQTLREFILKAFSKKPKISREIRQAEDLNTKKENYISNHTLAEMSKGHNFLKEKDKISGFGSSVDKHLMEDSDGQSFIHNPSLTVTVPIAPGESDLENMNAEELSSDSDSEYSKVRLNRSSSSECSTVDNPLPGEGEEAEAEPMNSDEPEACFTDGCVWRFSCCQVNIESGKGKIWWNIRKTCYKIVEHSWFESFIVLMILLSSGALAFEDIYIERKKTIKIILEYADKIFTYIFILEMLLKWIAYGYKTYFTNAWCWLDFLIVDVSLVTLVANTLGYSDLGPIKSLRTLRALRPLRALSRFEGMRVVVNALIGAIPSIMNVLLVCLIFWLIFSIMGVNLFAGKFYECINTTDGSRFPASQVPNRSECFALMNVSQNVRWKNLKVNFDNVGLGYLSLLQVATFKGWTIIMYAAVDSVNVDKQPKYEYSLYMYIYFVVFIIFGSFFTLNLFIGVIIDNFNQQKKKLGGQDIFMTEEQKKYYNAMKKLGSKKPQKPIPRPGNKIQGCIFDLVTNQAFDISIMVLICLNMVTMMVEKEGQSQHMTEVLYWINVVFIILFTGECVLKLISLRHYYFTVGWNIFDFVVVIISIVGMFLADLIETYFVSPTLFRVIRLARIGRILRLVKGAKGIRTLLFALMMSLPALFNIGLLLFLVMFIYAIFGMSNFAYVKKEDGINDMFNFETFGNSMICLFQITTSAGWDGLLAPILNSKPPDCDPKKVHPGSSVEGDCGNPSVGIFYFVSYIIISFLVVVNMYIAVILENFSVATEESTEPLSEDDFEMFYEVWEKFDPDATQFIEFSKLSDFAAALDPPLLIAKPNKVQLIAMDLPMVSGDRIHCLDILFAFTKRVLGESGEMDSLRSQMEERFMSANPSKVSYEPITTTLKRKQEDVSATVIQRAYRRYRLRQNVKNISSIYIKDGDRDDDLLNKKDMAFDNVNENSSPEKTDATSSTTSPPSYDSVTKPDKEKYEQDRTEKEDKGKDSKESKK
T1 sequence (Q07699 19-218 partner): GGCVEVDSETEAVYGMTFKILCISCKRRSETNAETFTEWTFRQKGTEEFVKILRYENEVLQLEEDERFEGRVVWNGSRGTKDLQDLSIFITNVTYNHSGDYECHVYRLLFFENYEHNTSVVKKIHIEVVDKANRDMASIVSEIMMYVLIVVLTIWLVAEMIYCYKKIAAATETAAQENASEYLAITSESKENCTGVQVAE
T1 sequence (O60939 30-215 partner): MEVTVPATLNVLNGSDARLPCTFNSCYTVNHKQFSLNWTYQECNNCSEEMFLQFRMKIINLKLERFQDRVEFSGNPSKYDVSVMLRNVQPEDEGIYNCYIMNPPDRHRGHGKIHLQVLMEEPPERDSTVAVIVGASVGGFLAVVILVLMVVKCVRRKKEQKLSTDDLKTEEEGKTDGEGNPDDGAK
T3 sequence (Q14524 whole entry): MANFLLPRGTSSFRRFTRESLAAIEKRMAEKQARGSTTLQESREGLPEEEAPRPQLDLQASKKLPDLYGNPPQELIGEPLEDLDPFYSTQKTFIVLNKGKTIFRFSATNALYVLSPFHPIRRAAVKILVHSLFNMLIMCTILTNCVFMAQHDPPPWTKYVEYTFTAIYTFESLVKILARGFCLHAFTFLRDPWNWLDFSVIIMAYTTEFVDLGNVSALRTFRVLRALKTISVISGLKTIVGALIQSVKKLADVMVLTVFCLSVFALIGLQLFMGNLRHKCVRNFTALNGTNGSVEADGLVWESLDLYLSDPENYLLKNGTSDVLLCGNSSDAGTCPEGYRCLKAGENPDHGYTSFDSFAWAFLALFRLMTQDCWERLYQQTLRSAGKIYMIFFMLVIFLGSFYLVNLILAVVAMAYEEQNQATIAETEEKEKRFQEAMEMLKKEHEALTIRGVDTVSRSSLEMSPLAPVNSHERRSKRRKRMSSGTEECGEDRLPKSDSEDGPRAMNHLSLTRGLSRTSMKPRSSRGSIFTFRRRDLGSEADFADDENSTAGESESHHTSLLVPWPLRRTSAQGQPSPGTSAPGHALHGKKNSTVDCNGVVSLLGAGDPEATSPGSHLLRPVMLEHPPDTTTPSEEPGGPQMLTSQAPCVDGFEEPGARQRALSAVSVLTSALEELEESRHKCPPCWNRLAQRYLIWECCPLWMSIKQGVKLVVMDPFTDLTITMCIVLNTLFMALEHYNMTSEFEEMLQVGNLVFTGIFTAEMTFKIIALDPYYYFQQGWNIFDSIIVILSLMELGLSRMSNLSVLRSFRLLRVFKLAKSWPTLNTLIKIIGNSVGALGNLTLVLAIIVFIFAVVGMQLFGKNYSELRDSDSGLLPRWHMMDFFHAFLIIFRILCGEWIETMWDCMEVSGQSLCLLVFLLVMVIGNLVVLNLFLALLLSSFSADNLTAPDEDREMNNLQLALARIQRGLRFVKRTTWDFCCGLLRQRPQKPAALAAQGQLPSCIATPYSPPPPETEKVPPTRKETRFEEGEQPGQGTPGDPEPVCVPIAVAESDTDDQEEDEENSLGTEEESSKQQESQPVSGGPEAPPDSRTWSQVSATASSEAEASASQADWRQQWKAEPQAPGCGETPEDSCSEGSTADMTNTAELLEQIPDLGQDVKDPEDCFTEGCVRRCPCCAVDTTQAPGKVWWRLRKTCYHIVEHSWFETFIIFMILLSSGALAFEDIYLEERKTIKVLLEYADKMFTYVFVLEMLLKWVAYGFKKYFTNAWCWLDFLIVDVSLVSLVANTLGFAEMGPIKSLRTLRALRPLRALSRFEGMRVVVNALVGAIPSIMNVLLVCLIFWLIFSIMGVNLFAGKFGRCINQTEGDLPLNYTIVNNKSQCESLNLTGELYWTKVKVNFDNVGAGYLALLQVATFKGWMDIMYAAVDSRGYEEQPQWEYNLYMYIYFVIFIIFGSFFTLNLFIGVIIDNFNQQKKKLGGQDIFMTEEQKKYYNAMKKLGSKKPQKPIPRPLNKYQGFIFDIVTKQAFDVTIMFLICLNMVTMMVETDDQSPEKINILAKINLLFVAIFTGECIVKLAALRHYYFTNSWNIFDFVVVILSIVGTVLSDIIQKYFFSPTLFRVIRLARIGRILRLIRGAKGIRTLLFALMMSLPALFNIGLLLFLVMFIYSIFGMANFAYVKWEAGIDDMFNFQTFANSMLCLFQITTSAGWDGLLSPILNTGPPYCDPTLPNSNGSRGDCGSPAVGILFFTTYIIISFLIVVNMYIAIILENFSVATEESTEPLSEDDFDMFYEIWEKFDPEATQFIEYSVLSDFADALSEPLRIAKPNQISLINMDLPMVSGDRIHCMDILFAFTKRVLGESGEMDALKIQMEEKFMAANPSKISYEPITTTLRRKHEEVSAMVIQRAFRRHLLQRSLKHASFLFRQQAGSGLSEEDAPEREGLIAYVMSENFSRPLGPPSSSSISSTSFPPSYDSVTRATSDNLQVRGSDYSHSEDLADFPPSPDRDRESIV
T2 sequence (Q15858 whole entry): as the sequence (Q15858 whole entry) above
T2 sequence (Q07699 19-218 partner): as the sequence (Q07699 19-218 partner) above
T2 sequence (O60939 30-215 partner): as the sequence (O60939 30-215 partner) above

As to `NC(=O)CNCCCc1cc(Cl)ccc1Oc1cc(F)c(S(=O)(=O)Nc2cscn2)cc1Cl` [Compound 49, 2-((3-(5-chloro-2-(2-chloro-5-fluoro-4-(N-(thiazol-4-yl)sulfamoyl)phenoxy)phenyl)propyl)amino)acetamide], the IC50 on hNaV1.7 is 100 to 500 nM and 500 to 1000 nM; on NaV1.7, below 100 nM; against NaV1.5 it was above 10000 nM. Moreover, the “effect in the tactile allodynia test” value in assay [1] is reported as “no significant effect”.

The values are drawn from patent US20160221974A1, “SODIUM CHANNEL MODULATORS FOR THE TREATMENT OF PAIN AND DIABETES” (CHROMOCELL CORPORATION, priority 2013, published 2016).
